Data as given in US11124523B2, “2,6-dioxaspiro [4,5] decane derivatives and preparation method therefor and pharmaceutical applications thereof” (SHANDONG LUYE PHARMACEUTICAL CO., LTD., priority 2017, dated 2021).
Where a name gives a salt, the structure may show the parent alone. Read-outs that look alike come from different tables or passages of the source.

Experiments:
hERG potassium channels = hERG potassium channels (Homo sapiens (Human), UniProt Q12809); assay: Effects on hERG potassium channels (Qpatch, CHO-hERG cells); assay type: cell-based; details: highest test concentration 40 μM, read-out: IC50 representing the blocking effects of hERG potassium currents
Method: 5.1 Experimental Purpose: To test the blocking effects of the compounds of the present disclosure on hERG potassium currents.
a. CHO-hERG cells were cultured in a 175 cm^2 culture flask. When the cells were grown to a density of 60 to 80%, the culture solution was removed, and the cells were washed once with 7 mL of PBS (phosphate buffer solution), and then 3 mL of a cell digestion solution (Detachin) was added for digestion of the cells.
b. After completely digested, the cells were neutralized by adding 7 mL of the culture solution and then centrifuged, the supernatant was removed, and then 5 mL of the culture solution was added for resuspension to ensure a cell density of 2 to 5×10^6 cells/mL.
The single-cell high-impedance sealing and whole-cell pattern formation processes were both carried out automatically by the Qpatch instrument. After the whole-cell recording pattern was obtained, the cells were clamped at −80 millivolts. A preceding voltage of −50 millivolts was applied for 50 milliseconds prior to application of a depolarizing stimulus of +40 millivolts for 5 seconds, and then the cells were repolarized to −50 millivolts and maintained for 5 seconds and then returned back to −80 millivolts. This voltage stimulation was applied every 15 seconds, and data were recorded for 2 minutes, and thereafter the extracellular fluid was administered and data were recorded for 5 minutes, and then the administration process was started. The compound was administered for 2.5 minutes at each test concentration from the lowest test concentration. After all the concentrations of the compound were administered, […] of Cisapride was administered as a positive comparative compound. At least three cells (n>3) were tested for each concentration.
a. A 20 mM compound mother solution was diluted with the extracellular fluid, wherein 5 μL of the 20 mM compound mother solution was taken and diluted 500 times to 40 μM by adding 2495 μL of the extracellular fluid thereto, and then 3-fold serial dilutions were performed sequentially in the extracellular fluid containing 0.2% DMSO to obtain a final concentration to be tested.
b. The highest test concentration was 40 μM, and there were six concentrations in total, i.e., 40, 13.33, 4.44, 1.48, 0.49, and 0.16 μM, respectively.
c. The DMSO content in the final test concentration was not more than 0.2%. This concentration of DMSO had no effect on the hERG potassium channel.
The experimental data were analyzed by XLFit software.

CYP2D6 = CYP2D6 (Homo sapiens (Human), UniProt P10635); assay: Inhibition of cytochrome P450 isoenzymes, CYP2D6; assay type: in vitro ADME
Method: 4.1 Experimental Purpose: To test the inhibitory effects of the compounds of the present disclosure on different isoforms of human cytochrome P450 isoenzymes
1) The activities of CYP1A2, 2C9, 2C19, 2D6, and 3A4 were measured using a standard substrate method. In each reaction, the enzyme activities were measured in the presence and absence of the substance to be tested, wherein a single sample was measured at a total of eight test concentrations. A 5-in-1 mixed inhibitor was used.
2) An incubation matrix comprising microsomes, a substrate, and an inhibitor or the compound to be tested was pre-incubated at 37° C. for 5 minutes, and then NADPH was added to start the reaction.
3) After the incubation, acetonitrile with an internal standard was added to stop the reaction.
4) Metabolites generated by the substrates were measured by using the LC-MS/MS method, and the peak area ratio of each metabolite to the internal standard was evaluated and the inhibition rate and IC50 were calculated.

[1] = published Phase 2 clinical trial data; compared to morphine; cited from earlier work

hERG potassium channels, sequence (Q12809 whole entry): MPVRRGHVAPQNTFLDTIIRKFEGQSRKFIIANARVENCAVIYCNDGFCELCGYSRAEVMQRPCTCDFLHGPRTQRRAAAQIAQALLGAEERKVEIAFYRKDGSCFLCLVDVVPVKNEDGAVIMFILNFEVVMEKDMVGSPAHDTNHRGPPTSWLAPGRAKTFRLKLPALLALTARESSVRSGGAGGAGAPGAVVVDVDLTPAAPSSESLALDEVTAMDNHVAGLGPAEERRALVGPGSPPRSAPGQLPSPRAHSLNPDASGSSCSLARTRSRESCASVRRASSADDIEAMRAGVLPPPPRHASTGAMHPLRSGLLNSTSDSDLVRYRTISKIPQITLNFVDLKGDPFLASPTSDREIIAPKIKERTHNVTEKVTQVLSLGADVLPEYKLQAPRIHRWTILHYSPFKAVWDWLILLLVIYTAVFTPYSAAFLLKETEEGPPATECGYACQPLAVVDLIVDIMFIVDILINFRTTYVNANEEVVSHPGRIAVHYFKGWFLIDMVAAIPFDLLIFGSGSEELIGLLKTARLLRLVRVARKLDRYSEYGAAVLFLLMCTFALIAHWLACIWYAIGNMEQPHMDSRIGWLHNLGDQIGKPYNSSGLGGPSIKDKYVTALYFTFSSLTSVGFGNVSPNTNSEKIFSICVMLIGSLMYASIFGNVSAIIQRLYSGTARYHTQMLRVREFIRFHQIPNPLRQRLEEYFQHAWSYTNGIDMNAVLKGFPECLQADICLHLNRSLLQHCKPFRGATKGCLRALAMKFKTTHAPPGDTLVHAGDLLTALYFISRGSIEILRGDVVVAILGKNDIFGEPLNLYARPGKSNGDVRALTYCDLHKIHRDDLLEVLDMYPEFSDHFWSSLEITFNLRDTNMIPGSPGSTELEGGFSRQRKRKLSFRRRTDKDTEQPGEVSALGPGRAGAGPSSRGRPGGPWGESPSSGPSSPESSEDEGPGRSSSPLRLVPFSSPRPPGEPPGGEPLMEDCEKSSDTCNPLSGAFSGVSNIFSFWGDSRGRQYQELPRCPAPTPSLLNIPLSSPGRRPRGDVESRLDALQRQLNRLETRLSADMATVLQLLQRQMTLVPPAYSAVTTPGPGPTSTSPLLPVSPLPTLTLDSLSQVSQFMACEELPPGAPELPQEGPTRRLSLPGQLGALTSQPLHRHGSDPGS
CYP2D6, sequence (P10635 whole entry, canonical isoform): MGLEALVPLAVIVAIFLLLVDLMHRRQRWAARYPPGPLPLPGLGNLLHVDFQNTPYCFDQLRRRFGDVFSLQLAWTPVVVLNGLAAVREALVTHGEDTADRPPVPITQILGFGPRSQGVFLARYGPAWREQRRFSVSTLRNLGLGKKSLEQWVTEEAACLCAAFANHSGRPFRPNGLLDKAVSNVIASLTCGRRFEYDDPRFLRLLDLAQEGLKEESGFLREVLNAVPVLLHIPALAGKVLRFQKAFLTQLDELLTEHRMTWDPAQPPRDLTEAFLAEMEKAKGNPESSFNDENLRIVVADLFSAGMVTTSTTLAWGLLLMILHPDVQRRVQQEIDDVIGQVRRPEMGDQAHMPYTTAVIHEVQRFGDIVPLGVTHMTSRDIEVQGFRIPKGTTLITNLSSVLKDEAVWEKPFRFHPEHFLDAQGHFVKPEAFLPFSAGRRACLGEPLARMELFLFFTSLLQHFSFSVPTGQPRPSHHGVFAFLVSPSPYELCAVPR

| Compound | IC50 (hERG potassium channels) [µM] | IC50 (CYP2D6; read-out: CYP 2D6 IC50) [µM] | IC50 (CYP2D6) [µM] | side effects, Phase 2 clinical trial (in words) [1] |
| --- | --- | --- | --- | --- |
| c1ccc([C@]2(CCNCc3scc4c3CCC4)CCO[C@]3(CCOC3)C2)nc1 [(+)-2] | > 40 | 46.4 |  |  |
| Fc1ccc([C@]2(CCNCc3cccc(Cl)c3)CCO[C@]3(CCOC3)C2)nc1 [(+)-16] |  | 12.7 |  |  |
| Cc1cccc(CNCC[C@@]2(c3ccc(F)cn3)CCO[C@]3(CCOC3)C2)c1 [Hydrochloride Salt of (+)-22] | 18.8 |  | 19.3 |  |
| Fc1ccc([C@]2(CCNCc3cccc(F)c3)CCO[C@]3(CCOC3)C2)nc1 [Hydrochloride Salt of (+)-23] |  | 17.8 |  |  |
| COc1ccsc1CNCC[C@@]1(c2ccccn2)CCOC2(CCCC2)C1 [compound 1, Oliceridine, reference compound] | 5.5 |  | 4.6 | significant reduction in side effects compared to morphine |
